Key:
microorganisms = settings: J. J. Kabara; cited from earlier work
[1] = tested on: Bacteria and fungi (Escherichia coli, Pseudomonas aeruginosa, Staphylococcus aureus, Candida albicans, Aspergillus niger); test: PET, overall compliance with European and U.S. pharmacopoeia criteria; format: cell-based; settings: for Solutions providing antimicrobial protection, Pharma Europe: EtOH concentration / Solutions providing antimicrobial protection, Pharma USP: EtOH concentration: ethanol combined with the humectant; for Solutions providing antimicrobial protection, Pharma Europe: EtOH concentration / Solutions providing antimicrobial protection, Pharma USP: EtOH concentration / Solutions providing antimicrobial protection, Pharma Europe: humectant concentration / Solutions providing antimicrobial protection, Pharma USP: humectant concentration: lotion-type aqueous solution, no preservative; for Solutions providing antimicrobial protection, Pharma Europe: humectant concentration / Solutions providing antimicrobial protection, Pharma USP: humectant concentration: humectant combined with ethanol; for Ethanol concentration to meet the USP criteria: reduced from 15%; for Ethanol concentration to meet European pharmacopoeia criteria A: reduced from 25%; for USP criteria / Bacteria: European pharmacopoeia criteria: 30% by mass in an aqueous solution, without ethanol; for Bacteria: European pharmacopoeia criteria: bacteria only; for Efficacy on the microorganisms as a whole / spectrum of efficacy: additive in standard emulsion
Excerpt: (§1) A particular problem that must be solved by the invention is that of effectively protecting a pharmaceutical topical composition while at the same time meeting the criteria required by the European and U.S. pharmacopoeias. This is because, since the purpose of the pharmaceutical composition is to become a pharmaceutical product with a marketing authorization, it is imperative for the composition according to the invention to meet these criteria. In order to verify this point and to determine the antimicrobial action of the various mixtures of excipients according to the invention, a test protocol, known as the PET (Preservative Efficacy Test), exists. The PET comprises artificially inoculating the compositions with a known number of microorganisms, and then determining the decrease in the latter in the compositions tested, at given times. The protocol of this test is set up in order to abide by the recommendations of the European and U.S. pharmacopoeias. The test and also the recommendations of the European and U.S. pharmacopoeias are described in Example 1 to follow. The mixture of excipients as preservatives, described herein, should therefore meet the criteria of these pharmacopoeias in the PET.
This test comprises artificially contaminating aliquots of formulation by means of a calibrated inoculum of specific microorganisms and incubating the same at precise temperatures. Samples are taken from the contaminated aliquots at given time intervals in order to count the microorganisms.
It also makes it obligatory to study the reductions in population of the microorganisms introduced into the formulation according to two acceptability criteria.
Since the A criteria are the most strict, it are […] generally required that they be met.
In justified cases, when the A criteria cannot be complied with, for example owing to an increase in the risk of adverse reactions, the B criteria, which are less drastic, apply.
NI (Non-Increase) signifies that there must not be an increase in the number of microorganisms.
It imposes logarithmic reductions in the population of microorganisms which are different than that of the European pharmacopoeia.

Candida albicans = settings: cited from earlier work
Aspergillus niger = settings: cited from earlier work
[2] = tested on: Staphylococcus aureus, reference ATCC 6538; test: Preservative Efficacy Test (PET), Staphylococcus aureus; format: cell-based; parameters: key to Gram+ bacterium, Staphylococcus aureus: −: No European pharmacopoeia criterion or USP criterion is met; +: for the coli: the USP criteria are met; ++: the European pharmacopoeia criteria A are met; settings: additive in standard emulsion
Excerpt: as §1, with “The test and also the recommendations of the European and U.S. pharmacopoeias are described in Example 1 to follow.” left out, “PET. This test comprises artificially contaminating aliquots of formulation by means of a calibrated inoculum of specific microorganisms and incubating the same at precise temperatures. Samples are taken from the contaminated aliquots at given time intervals in order to count the microorganisms. Bacteria: • Pseudomonas aeruginosa, reference ATCC 9027; NCIMB 8626; CIP 82.118. • Staphylococcus aureus, reference ATCC 6538; NCTC 10788; NCIMB 9518; CIP 4.83. Bacteria: • Escherichia coli, reference ATCC 8739. • Pseudomonas aeruginosa, reference ATCC 9027. • Staphylococcus aureus, reference ATCC 6538.” for “PET.”

[3] = tested on: Escherichia coli, reference ATCC 8739; test: Preservative Efficacy Test (PET), Escherichia coli; format: cell-based; parameters: key to Gram− bacterium, Esoherichia coli: −: No European pharmacopoeia criterion or USP criterion is met; +: for the coli: the USP criteria are met; ++: the European pharmacopoeia criteria A are met; settings: additive in standard emulsion
Excerpt: as §1, with “The test and also the recommendations of the European and U.S. pharmacopoeias are described in Example 1 to follow.” left out, “PET. This test comprises artificially contaminating aliquots of formulation by means of a calibrated inoculum of specific microorganisms and incubating the same at precise temperatures. Samples are taken from the contaminated aliquots at given time intervals in order to count the microorganisms. Bacteria: • Escherichia coli, reference ATCC 8739. • Pseudomonas aeruginosa, reference ATCC 9027. • Staphylococcus aureus, reference ATCC 6538.” for “PET.”

[4] = tested on: Pseudomonas aeruginosa, reference ATCC 9027; test: Preservative Efficacy Test (PET), Pseudomonas aeruginosa; format: cell-based; parameters: key to Gram− bacterium, Pseudomonas aeruginosa: −: No European pharmacopoeia criterion or USP criterion is met; +: for the coli: the USP criteria are met; ++: the European pharmacopoeia criteria A are met; settings: additive in standard emulsion
Excerpt: as §1, with “The test and also the recommendations of the European and U.S. pharmacopoeias are described in Example 1 to follow.” left out, “PET. This test comprises artificially contaminating aliquots of formulation by means of a calibrated inoculum of specific microorganisms and incubating the same at precise temperatures. Samples are taken from the contaminated aliquots at given time intervals in order to count the microorganisms. Bacteria: • Pseudomonas aeruginosa, reference ATCC 9027; NCIMB 8626; CIP 82.118. • Staphylococcus aureus, reference ATCC 6538; NCTC 10788; NCIMB 9518; CIP 4.83. Bacteria: • Escherichia coli, reference ATCC 8739. • Pseudomonas aeruginosa, reference ATCC 9027. • Staphylococcus aureus, reference ATCC 6538.” for “PET.”

[5] = tested on: Aspergillus niger, reference ATCC 16404; test: Preservative Efficacy Test (PET), Aspergillus niger; format: cell-based; parameters: key to Moulds, Aspergillus Niger: −: No European pharmacopoeia criterion or USP criterion is met; +: for the coli: the USP criteria are met; ++: the European pharmacopoeia criteria A are met; settings: for Moulds, Aspergillus Niger: additive in standard emulsion at its given % (EDTA 0.15, citric acid 2, sodium ascorbate 2, tocopherol 0.05, BHT 1, propyl gallate 0.1, ascorbyl palmitate 1)
Excerpt: as §1, with “The test and also the recommendations of the European and U.S. pharmacopoeias are described in Example 1 to follow.” left out, “PET. This test comprises artificially contaminating aliquots of formulation by means of a calibrated inoculum of specific microorganisms and incubating the same at precise temperatures. Samples are taken from the contaminated aliquots at given time intervals in order to count the microorganisms. Fungi: • Candida albicans, reference ATCC 10231; NCPF 3179; IP 48.72. • Aspergillus niger, reference ATCC 16404; IMI 149007; IP 1431.83. Fungi: • Candida albicans, reference ATCC 10231. • Aspergillus niger, reference ATCC 16404.” for “PET.”

[6] = tested on: Candida albicans, reference ATCC 10231; test: Preservative Efficacy Test (PET), Candida albicans; format: cell-based; parameters: key to Yeast, Candida albicans: −: No European pharmacopoeia criterion or USP criterion is met; +: for the coli: the USP criteria are met; ++: the European pharmacopoeia criteria A are met; settings: additive in standard emulsion
Excerpt: as §1, with “The test and also the recommendations of the European and U.S. pharmacopoeias are described in Example 1 to follow.” left out, “PET. This test comprises artificially contaminating aliquots of formulation by means of a calibrated inoculum of specific microorganisms and incubating the same at precise temperatures. Samples are taken from the contaminated aliquots at given time intervals in order to count the microorganisms. Fungi: • Candida albicans, reference ATCC 10231; NCPF 3179; IP 48.72. • Aspergillus niger, reference ATCC 16404; IMI 149007; IP 1431.83. Fungi: • Candida albicans, reference ATCC 10231. • Aspergillus niger, reference ATCC 16404.” for “PET.”

CCO [ethanol]
Ethanol concentration starting from which proliferation of microorganisms can be prevented (microorganisms): ≥ 25 % (v/v)
Ethanol concentration in the aqueous mixture from which the bactericidal action meets European pharmacopoeia criteria A and the USP criteria ([1]; ethanol/water, bacteria): ≥ 15%
Ethanol concentration at which the fungicidal action meets the requirements for all the pharmacopoeias ([1]; ethanol/water, fungi): 25%

Polyethylene Glycol 400 [PEG 400]
Solutions providing antimicrobial protection, Pharma Europe: EtOH concentration [1]: starting from 10%
Solutions providing antimicrobial protection, Pharma USP: EtOH concentration [1]: starting from 5% EtOH
Solutions providing antimicrobial protection, Pharma Europe: humectant concentration [1]: starting from 20%
Solutions providing antimicrobial protection, Pharma USP: humectant concentration [1]: starting from 20% PEG
Ethanol concentration to meet the USP criteria ([1]; with 20% by mass of PEG 400): 5%
Ethanol concentration to meet European pharmacopoeia criteria A ([1]; with 20% by mass of PEG 400): 10%

CCCOC(=O)c1ccc(O)cc1 [propylparaben]
Concentration that makes it possible to inhibit Candida albicans (Candida albicans): 250 ppm
Concentration that makes it possible to inhibit Aspergillus niger (Aspergillus niger): 250 ppm

OCC(O)CO [glycerol]
USP criteria [1]: does not meet
Bacteria: European pharmacopoeia criteria [1]: meet only European pharmacopoeia criteria B for bacteria
Solutions providing antimicrobial protection, Pharma Europe: EtOH concentration [1]: starting from 15%
Solutions providing antimicrobial protection, Pharma USP: EtOH concentration [1]: starting from 5% EtOH
Solutions providing antimicrobial protection, Pharma Europe: humectant concentration [1]: starting from 5%
Solutions providing antimicrobial protection, Pharma USP: humectant concentration [1]: starting from 10%
Ethanol concentration to meet European pharmacopoeia criteria A ([1]; with 5% by mass of glycerol): 15%
Ethanol concentration to meet the USP criteria ([1]; with 10% by mass of glycerol): 5%

CCCCCCCCCCCCCCCC(=O)OC[C@H](O)[C@H]1OC(=O)C(O)=C1O [Ascorbyl palmitate]
Gram+ bacterium, Staphylococcus aureus [2]: ++
Gram− bacterium, Esoherichia coli [3]: +
Efficacy on the microorganisms as a whole / spectrum of efficacy [1]: bactericidal
Gram− bacterium, Pseudomonas aeruginosa [4]: ++
Moulds, Aspergillus Niger [5]: −
Yeast, Candida albicans [6]: −

CC(O)CO (centres unmarked) [PG, Propylene glycol]
USP criteria [1]: makes it possible to meet
Bacteria: European pharmacopoeia criteria [1]: meeting European pharmacopoeia criteria A
Solutions providing antimicrobial protection, Pharma Europe: EtOH concentration [1]: starting from 15%
Solutions providing antimicrobial protection, Pharma USP: EtOH concentration [1]: starting from 0% EtOH
Solutions providing antimicrobial protection, Pharma Europe: humectant concentration [1]: starting from 5% PG
Solutions providing antimicrobial protection, Pharma USP: humectant concentration [1]: starting from 30% PG
Ethanol concentration to meet European pharmacopoeia criteria A ([1]; with 10% of PG): 15%
Action on fungi, in particular Aspergillus niger ([5]; humectant alone, without ethanol): does not ensure a decrease in these microorganisms

Tocopherol
Gram+ bacterium, Staphylococcus aureus [2]: −
Gram− bacterium, Esoherichia coli [3]: −
Efficacy on the microorganisms as a whole / spectrum of efficacy [1]: do not have a significant efficacy
Gram− bacterium, Pseudomonas aeruginosa [4]: −
Moulds, Aspergillus Niger [5]: −
Yeast, Candida albicans [6]: −

O.O.O=C([O-])CN(CCN(CC(=O)O)CC(=O)O)CC(=O)[O-].[Na+].[Na+] [EDTA, Disodium EDTA Dihydrate]
Gram+ bacterium, Staphylococcus aureus [2]: −
Gram− bacterium, Esoherichia coli [3]: −
Gram− bacterium, Pseudomonas aeruginosa [4]: ++
Inhibition of Pseudomonas aeruginosa, criteria met [4]: meeting European pharmacopoeia criteria A
Moulds, Aspergillus Niger [5]: −
Yeast, Candida albicans [6]: −

Cc1cc(C(C)(C)C)c(O)c(C(C)(C)C)c1 [BHT, butylhydroxytoluene]
Gram+ bacterium, Staphylococcus aureus [2]: −
Gram− bacterium, Esoherichia coli [3]: −
Gram− bacterium, Pseudomonas aeruginosa [4]: −
Moulds, Aspergillus Niger [5]: −
Yeast, Candida albicans [6]: −

O=C1O[C@H]([C@@H](O)CO)C([O-])=C1O.[Na+] [Sodium ascorbate]
Action on Staphylococcus aureus, criteria met [2]: meeting European pharmacopoeia criteria A
Gram+ bacterium, Staphylococcus aureus [2]: ++
Action on Escherichia coli, criteria met [3]: meeting the USP criteria
Gram− bacterium, Esoherichia coli [3]: +
Gram− bacterium, Pseudomonas aeruginosa [4]: −
Moulds, Aspergillus Niger [5]: −
Yeast, Candida albicans [6]: −

COC(=O)c1ccc(O)cc1 [methylparaben]
Concentration that makes it possible to inhibit Candida albicans (Candida albicans): 1000 ppm
Concentration that makes it possible to inhibit Aspergillus niger (Aspergillus niger): 1000 ppm

CCCOC(=O)c1cc(O)c(O)c(O)c1 [Propyl gallate]
Gram+ bacterium, Staphylococcus aureus [2]: −
Gram− bacterium, Esoherichia coli [3]: −
Gram− bacterium, Pseudomonas aeruginosa [4]: ++
Inhibition of Pseudomonas aeruginosa, criteria met [4]: meeting European pharmacopoeia criteria A
Moulds, Aspergillus Niger [5]: −
Yeast, Candida albicans [6]: −

Reference: patent US8758782B2, “Excipient preservatives and pharmaceutical compositions comprised thereof” (Galderma Research & Development, priority 2007, dated 2014)
